“And” between values parts separate entries of the source, which are not always exact repeats. Identical values can stand only once.
Experiments:
human hepatic LO2 cells = conditions: for IC50: read-out: IC50 LO2, MTT, 48 h, mean ± SD, three independent experiments
Method: (§1) These cell lines were cultured in Dulbecco's Modified Eagle Medium containing 10% (v/v) fetal bovine serum (FBS, Wisent) and 1% (v/v) Penicillin-Streptomycin Solution mixture (Beyotime, Shanghai, China) at 37 °C under 5% CO2. An MTT assay evaluated the cytotoxicity of lupeol derivatives toward the A549, MCF-7, HepG2, and LO2 cell lines. The cells were inoculated into 96-well plates (3 × 10^3 cells/well) and cultured for 24 h at 37 °C in 5% CO2. After that, a gradient concentration of the test drug was added to continue the incubation for 48 h. Subsequently, the MTT solution continued to incubate with the cells for 4 h. Afterward, the upper waste layer was discarded, and DMSO was added ([…], Tianjin, China). After the formazan completely dissolved, the absorbance of each well at 490 nm was measured with a microplate reader. The mean values were derived from three independent experiments.

human lung cancer A549 = assay: MTT antiproliferative assay, A549; type: cell-based; conditions: 48 h, mean ± SD, three independent experiments
Method: as §1

[1] = system: human hepatocarcinoma HepG2; assay: MTT antiproliferative assay, HepG2; type: cell-based; conditions: for SI (selectivity index): IC50 values on L02 cells/HepG2 cells; for IC50: MTT, 48 h, mean ± SD, three independent experiments
Method: as §1

[2] = system: human breast cancer MCF-7; assay: MTT antiproliferative assay, MCF-7; type: cell-based; conditions: 48 h, mean ± SD, three independent experiments
Method: as §1

HepG2 cells [3] = conditions: HepG2, 2, 4 and 8 μM, 48 h, DCFH-DA
Method: After the cells were washed with PBS, the supernatant was removed and incubated with 500 μL of 10 μm/L DCFH-DA solution at 25 °C for 20 min, and the data were gathered using a flow cytometer.
After the cells were washed with PBS, the supernatant was removed and incubated with 500 μL of 10 μm/L DCFH-DA solution at 25 °C for 20 min, and the samples were collected and imaged using confocal microscopy.

HepG2 cells [4] = conditions: HepG2, 2, 4 and 8 μM, increasing concentration
Method: (§2) To further evaluate compound 12i-induced HepG2 cell apoptosis, HepG2 cells were treated with this compound (at 0, 2, 4, and 8 μM), followed by staining with Acridine Orange/Ethidium bromide (AO/EB). […] Subsequently, we used Annexin V-FITC/PI double staining to characterize the effect of compound 12i based on the total apoptosis rate of HepG2 cells.

HepG2 cells [5] = assay: Annexin V-FITC/PI double staining, flow cytometry; type: cell-based, human; conditions: HepG2, 48 h, blank control 5.75%
Method: as §2
HepG2 cells were inoculated into 6-well plates for 24 h, attached via cell adhesion, and then treated with 12i (0, 2, 4, and 8 μM) for 48 h. The cells were harvested and treated with Annexin V-FITC/PI staining solution, and the data were gathered using a flow cytometer (FACS Calibur, BD, Milpitas, CA, USA).

HepG2 cells [6] = assay: Mitochondrial membrane potential, JC-1 staining; type: cell-based, human
Excerpt: MMP depolarization is one of the landmark events of apoptosis. To investigate the impact of 12i on MMP depolarization in HepG2 cells, we used 5,5′,6,6,6,6′-tetrachloro-1,1′,3,3′-tetraethylioiodine carbocyan (JC-1) staining. When the mitochondrial membrane potential is high, JC-1 aggregates in the substrate to form a polymer (J-aggregates), which produces red fluorescence. When the mitochondrial membrane potential is low, JC-1 cannot accumulate in the mitochondrial matrix and exists as a monomer to produce green fluorescence.
HepG2 cells were inoculated into 6-well plates for 24 h, attached via cell adhesion, and then treated with 12i (0, 2, 4, and 8 μM) for 48 h. The cells were cleaned with PBS and treated with JC-1 solution at 25 °C for 20 min, and the data were gathered using a flow cytometer.
HepG2 cells were inoculated into 6-well plates for 24 h, attached via cell adhesion, and then treated with 12i (0, 2, 4, and 8 μM) for 48 h. The cells were cleaned with PBS and treated with JC-1 solution at 25 °C for 20 min, and the samples were collected and imaged using confocal microscopy.

[7] = system: P-Akt, P-PI3K, P-mTOR in HepG2 cells; conditions: HepG2, 2, 4 and 8 μM, 48 h, Western blot, dose-dependent
Method: Therefore, Western blotting was conducted to determine the expression of the key proteins Akt, P-Akt, PI3K, P-PI3K, mTOR, and P-mTOR.
(§3) HepG2 cells were seeded in 6-well plates at a density of 1 × 10^6 overnight and treated with 12i (2, 4, and 8 μM) for 48 h. They were then washed twice with cooled PBS to remove the medium and lysed using a lysis buffer containing RIPA (Beyotime, Shanghai, China). The protein levels were quantified using a bicinchoninic acid protein assay kit (Beyotime, Shanghai, China). The proteins were separated via SDS-PAGE electrophoresis and transferred to PVDF membranes (Beyotime, Shanghai, China). After blocking with 5% skim milk for 2 h, the membranes were incubated with the primary antibody overnight at 4 °C, followed by 2 h with the specific secondary antibody. The antibodies were sourced commercially, including Bax (5023T, Cell Signaling Technology, Danvers, MA, USA), Bcl2 (3498T, Cell Signaling Technology, Danvers, MA, USA), Caspase-7 (12827T, Cell Signaling Technology, Danvers, MA, USA), Caspase-9 (9508T, Cell Signaling Technology, Danvers, MA, USA), Cleaved-Caspase-7 (8438T, Cell Signaling Technology, Danvers, MA, USA), Cleaved-Caspase-9 (7237T, Cell Signaling Technology, Danvers, MA, USA), GAPDH (2118T, Cell Signaling Technology, Danvers, MA, USA), PI3K (4249T, Cell Signaling Technology, Danvers, MA, USA), p-PI3K (4228T, Cell Signaling Technology, Danvers, MA, USA), AKT (4691T, Cell Signaling Technology, Danvers, MA, USA), p-AKT (4060T, Cell Signaling Technology, Danvers, MA, USA), mTOR (2972T, Cell Signaling Technology, Danvers, MA, USA). Immunoreactive bands were visualized using BeyoECL Plus (Beyotime, Shanghai, China) and scanned in a ChemiDoc MP Imaging System (Bio-Rad, Shanghai, China).

[8] = system: Bax, Bcl-2, cleaved caspase-7, cleaved caspase-9 in HepG2 cells; conditions: HepG2, 2, 4 and 8 μM, 48 h, Western blot
Method: The GAPDH expression level was used as an internal control group.
as §3

Structure (SMILES)	IC50 (human hepatic LO2 cells)	IC50 (human lung cancer A549)	SI (selectivity index) [1]	IC50 [1]	IC50 [2]	further results
C=C(C)C1CCC2(C)CCC3(C)C(CCC4C5(C)CCC(OC(=O)N6CCN(C(=O)CN7C(=O)SC(=Cc8ccc(Cl)cc8)C7=O)CC6)C(C)(C)C5CCC43C)C12 (stereo not drawn) [Compound 9b, Lupeol-3-[(1-Piperazinyl)-4]-5-(4-Chlorobenzylidene)-2,4-Thiazolidinedione]	80.5 ± 1.79 µM	15.5 ± 0.64 µM	4.44	18.1 ± 1.73 µM	14 ± 0.87 µM	–
C=C(C)C1CCC2(C)CCC3(C)C(CCC4C5(C)CCC(OC(=O)CN6C(=O)SC(=CC(C)C)C6=O)C(C)(C)C5CCC43C)C12 (stereo not drawn) [Compound 6i, Lupeol-3-[(1-Ethyl)-2]-5-(2-Methylpropylidene)-2,4-Thiazolidinedione]	45.5 ± 1.33 µM	11.3 ± 0.91 µM	4.80	9.48 ± 0.71 µM	8.7 ± 0.12 µM	–
C=C(C)C1CCC2(C)CCC3(C)C(CCC4C5(C)CCC(OC(=O)N6CCN(C(=O)CN7C(=O)SC(=Cc8ccc(OC)c(OC)c8OC)C7=O)CC6)C(C)(C)C5CCC43C)C12 (stereo not drawn) [Compound 9f, Lupeol-3-[(1-Piperazinyl)-4]-5-(2,3,4-Trimethoxybenzylidene)-2,4-Thiazolidinedione]	56.1 ± 0.77 µM	9.24 ± 0.48 µM	5.19	10.8 ± 0.45 µM	9.19 ± 0.46 µM	–
C=C(C)C1CCC2(C)CCC3(C)C(CCC4C5(C)CCC(OC(=O)NCCNC(=O)CN6C(=O)SC(=Cc7ccco7)C6=O)C(C)(C)C5CCC43C)C12 (stereo not drawn) [Compound 12g, Lupeol-3-[(1-Ethylenediaminyl)-4]-5-(2-Furanylmethylene)-2,4-Thiazolidinedione]	63.2 ± 1.31 µM	15.7 ± 1.42 µM	4.42	14.3 ± 0.56 µM	16.4 ± 0.87 µM	–
C=C(C)C1CCC2(C)CCC3(C)C(CCC4C5(C)CCC(OC(=O)NCCNC(=O)CN6C(=O)SC(=CC(C)C)C6=O)C(C)(C)C5CCC43C)C12 (stereo not drawn) [Compound 12i, Lupeol-3-[(1-Ethylenediaminyl)-4]-5-(2-Methylpropylidene)-2,4-Thiazolidinedione]	29.2 ± 0.53 µM	10.1 ± 0.62 µM	–	4.4 ± 0.02 µM	8.74 ± 0.34 µM	ROS production (HepG2 cells [3]): induces ROS production dose-dependently; morphological variations after AO/EB staining (HepG2 cells [4]): the green fluorescence gradually weakened and turned orange–red; cytotoxicity to human hepatic cell LO2 (in words) (human hepatic LO2 cells): weakly cytotoxic; total apoptosis rate (HepG2 cells [5]; 2 μM): 11.46%; total apoptosis rate (HepG2 cells [5]; 4 μM): 22.40%; total apoptosis rate (HepG2 cells [5]; 8 μM): 60.50%; effect on mitochondrial membrane potential (Δψm) (HepG2 cells [6]; HepG2, 2, 4 and 8 μM, JC-1 fluorescence microscopy): significantly reduce Δψm; monomer rate of JC-1 (HepG2 cells [6]; HepG2, 48 h, 8 μM, blank control 1.95%): 35.8%; phosphorylation level of P-Akt [7]: reduce the phosphorylation levels; phosphorylation level of P-PI3K [7]: reduce the phosphorylation levels; phosphorylation level of P-mTOR [7]: reduce the phosphorylation levels; Bax expression ([8]; GAPDH internal control): upregulate; Bcl-2 expression ([8]; GAPDH internal control): downregulate; cleaved caspase-7 expression level ([8]; dose dependently): activated; cleaved caspase-9 expression level ([8]; dose dependently): activated; potency against HepG2 relative to lupeol ([1]; HepG2, IC50 lupeol / IC50 compound): 9.9 fold and 9.91 fold
C=C(C)C1CCC2(C)CCC3(C)C(CCC4C5(C)CCC(OC(=O)CN6C(=O)SC(=Cc7ccc(C(C)(C)C)cc7)C6=O)C(C)(C)C5CCC43C)C12 (stereo not drawn) [Compound 6d, Lupeol-3-[(1-Ethyl)-2]-5-(4-Tert-Butylphenyl)-2,4-Thiazolidinedione]	39.2 ± 1.07 µM	14.2 ± 1.43 µM	3.61	10.9 ± 0.78 µM	15.4 ± 1.22 µM	–

— paper PMC11510666, “Thiazolidinedione-Conjugated Lupeol Derivatives as Potent Anticancer Agents Through a Mitochondria-Mediated Apoptotic Pathway” (Molecules, 2024)
